The text below walks through data of PubChem BioAssay AID549 (SRMLSC, 2006).

SMILES strings stand for the structures. The source made the active and inactive calls.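 Rule for the calls: active = clearly stronger inhibition of phosphomevalonate kinase than of the coupling enzymes alone in a parallel counterscreen; inactive = the rest.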

The assay deals with phosphomevalonate kinase (Streptococcus pneumoniae D39). Nature of the assay: S. pneumoniae PMK inhibitor potency, dose response, biochemical, mevalonate pathway, coupling enzyme counter-screen (AID 549). The note with it: PK/LDH coupled NADH absorbance 340 nm.
As for `COc1cc2[nH]c(=O)n(CCC(=O)NC3CCN(Cc4ccccc4)CC3)c(=O)c2cc1OC`, the outcome was inactive. On to `CC(=O)N1CCc2cc(S(=O)(=O)NC3CCCc4ccccc43)ccc21` (stereo not given), for which the outcome was inactive.

`C[C@]12CC[C@@H]3c4ccc(OS(=O)(=O)O)cc4CC[C@H]3[C@@H]1CCC2=O`: the outcome was inactive. For the compound `COc1ccccc1NC(=O)C1=C(C)NC2=C(C(=O)CCC2)C1c1ccc(C)o1` (stereo not given), the result was inactive.

In the case of `OCCNCC1(O)C2CC3CC(C2)CC1C3` (stereo not given), the outcome was inactive. `CC(=O)c1ccc(N2CCN(c3ccc(C(F)(F)F)cn3)CC2)cc1`: the result was inactive.

For the compound `COc1ccc(C(=O)Nc2ccccc2C(=O)NC(C(=O)NCc2ccco2)C(C)C)cc1` (stereo not given), the outcome was inactive. As to `COc1cccc2cc(C(=O)N3CCN(c4ccccc4F)CC3)c(=O)oc12`, the outcome was inactive. The result for `COc1ccc(-c2cc3nc(C)c(CCC(=O)N4CCCCC4)c(C)n3n2)c(OC)c1` reads “inactive”; that for `CC1(C)CC(C)(O)P(=O)(c2ccccc2)O1` (stereo not given), “inactive”.

`CCc1nn(C(C)C(=O)NCCc2ccc(OC)c(OC)c2)c(=O)c2cc3occc3n12` (stereo not given): the result was inactive. To `O=C(c1cccnc1)N1CCc2ccccc2C1` belongs “inactive”; to `COc1cc(OC)nc(NC(=O)NS(=O)(=O)c2ccc(OC(F)(F)F)cc2)n1`, “inactive”. `CCOc1ccc(C2c3c(oc4cc(C)c(C)cc4c3=O)C(=O)N2CCCN(C)C)cc1OC` (stereo not given): the result was inactive. Take `O=C(c1ccc(CS(=O)(=O)Cc2ccc(Cl)cc2)o1)N1CCCC1`: the result was inactive.

Consider `CC(=O)NC1N=C(C)N(c2ccccc2)C1=O` (stereo not given), for which the outcome was inactive. With `Cc1ccnc(N2CCC(C(=O)Nc3ccc(Oc4ccccc4)cc3)CC2)n1`, the outcome was inactive. Consider `CN1C(=O)OC2(C)CCc3ccccc3C12C` (stereo not given), for which the result was inactive. For the compound `COc1ccc(-c2coc3c(CN4CCCCC4)c(O)c(CN4CCCCC4)c(O)c3c2=O)cc1`, the result was inactive. With `CN(C)c1ccc(-c2nc3ccccc3n2C)cc1`, the outcome was inactive. Turning to `CCOc1ccccc1-n1c(SCC(=O)Nc2ccc(CC)cc2)nc2n[nH]c(C)c2c1=N`, the result was inactive. Take `CCN=c1sc(C(=O)NCCc2ccccc2)cc(=O)n1CC`: the outcome was inactive. To `CCN1CCN(C(c2ccc(F)cc2)c2nnnn2Cc2cccs2)CC1` (stereo not given) belongs “inactive”. In the case of `CCCCS(=O)(=O)C(=C1Nc2ccccc2N1)S(=O)(=O)CCCC`, the outcome was inactive. As for `CC(C)(C)c1ccccc1OCCCCCNCCO`, the outcome was inactive. The result for `CS(=O)(=O)N1CCCC(C(=O)NCc2ccccn2)C1` (stereo not given) reads “inactive”; that for `CCn1c(SCC(=O)Nc2ccc(Cl)cc2)nnc1C1CC1`, “inactive”. The result for `Cc1ccc(-c2noc(CCC(=O)NCCN3CCc4ccccc4C3)n2)cc1` reads “inactive”; that for `Cc1cc(OCC(=O)NCCO)cc(C)c1Cl`, “inactive”. On to `COc1ccc(C(=O)Nc2ccncc2)cc1OC`, for which the outcome was inactive. In the case of `Cc1ccc(C(c2nnnn2CC2CCCO2)N2CCN(C(=O)c3ccco3)CC2)cc1` (stereo not given), the result was inactive. As to `COc1ccccc1CNC(=O)C1CCN(c2nc3ccccc3o2)CC1`, the result was inactive. As to `CCCOc1ccc(-c2nnn(CC(=O)Nc3cccc(C(=O)OC)c3)n2)cc1`, the outcome was inactive. The result for `CC(OC(=O)c1cccs1)C(=O)NCC1CCCO1` (stereo not given) reads “inactive”; that for `COc1ccc(NC2CC(=O)NC2=O)cc1` (stereo not given), “inactive”.

With `Cc1ccsc1C1C(C(=O)O)c2ccccc2C(=O)N1C` (stereo not given), the result was inactive. To `CN1CCc2c(sc3c2c(=O)n(-c2ccccc2)c2nnc(SCc4ccc(F)cc4)n32)C1` belongs “inactive”; to `CC(=O)Nc1c(O)n(C)c2ccccc12`, “inactive”; to `O=c1c[n+]([O-])c2ccccc2n1OCc1c(F)cccc1F`, “inactive”. For the compound `Cc1cccc2cc(CN(CCN3CCCC3)C(=O)NC3CCCCC3)c(=O)[nH]c12`, the result was inactive. To `Cc1nc2ccc3nc(NC(=O)c4ccco4)sc3c2s1` belongs “inactive”; to `CCOCCCNC(=O)C1CCN(S(=O)(=O)N(CC(C)C)CC(C)C)CC1`, “inactive”.

Regarding `CCc1nn(C(C)C(=O)NC(C)CCc2ccco2)c(=O)c2cc3occc3n12` (stereo not given), the result was inactive. In the case of `CCS(=O)(=O)N1CCC(C(=O)NCCc2ccccc2)CC1`, the outcome was inactive. To `CCOCC(=O)NC1CCSC1=O` (stereo not given) belongs “inactive”; to `Cc1ccc(NC(=O)CSc2nnc(Cn3c(=O)sc4ccccc43)n2C)cc1Cl`, “inactive”. To `CS(=O)(=O)N1CCCC(C(=O)NCCc2ccc(Cl)cc2)C1` (stereo not given) belongs “inactive”; to `COc1ccc2c(c1OC)CN(C)CCc1cc3c(cc1C(O)C2)OCO3` (stereo not given), “inactive”; to `CC(C)OC(=O)CCC1(C(=O)O)CCC(=O)NC1` (stereo not given), “inactive”. Regarding `Cn1cnnc1SCC(=O)n1c2ccccc2c2ccccc21`, the outcome was inactive.

Consider `CC1CCN(C(=O)CSc2nc3ccccc3[nH]2)CC1`, for which the outcome was inactive. To `CCOc1ccc(CNC(=O)C2CCN(S(=O)(=O)N3CCCC3)CC2)cc1OC` belongs “inactive”; to `N#Cc1c(N)sc(=S)c2c1CCN(Cc1ccccc1)C2`, “inactive”; to `O=C(CSc1nnc(COc2ccccc2)n1-c1ccccc1)c1cccs1`, “inactive”. With `O=C(O)CCS(=O)(=O)Cc1ccccc1F`, the result was inactive.

For the compound `CCOC(=O)N1CCN(C(=O)Cn2nc(-c3ccc(Cl)cc3)ccc2=O)CC1`, the outcome was inactive. With `O=c1c(-c2ccccc2)c(O)c2cccc3c2n1CCC3`, the outcome was inactive.

Turning to `COCC(C)n1c(COc2ccccc2F)nnc1SCc1c(C)noc1C` (stereo not given), the outcome was inactive. Turning to `Clc1ccc(C(c2nnnn2C2CCCC2)N2CCN(Cc3ccncc3)CC2)cc1` (stereo not given), the result was inactive.

For the compound `CCCC(=O)Nc1cccc(NC(=O)CN2CCN(c3ccccc3OC)CC2)c1`, the outcome was inactive.

For `CS(=O)(=O)N(CC(=O)N1CCN(c2ccccc2)CC1)C1CCCCC1`, the result was inactive. For `O=C(NCc1ccccc1)C1C2C=CC3(CN(Cc4cccnc4)C(=O)C13)O2` (stereo not given), the outcome was inactive.

Turning to `CCOC(=O)N1CCC(NC(=O)CCc2cn(C)c3ccccc23)CC1`, the outcome was inactive. The result for `COc1ccc(CN2C(=O)c3ccccc3C2C(=O)NC2CCCC2)c(OC)c1` (stereo not given) reads “inactive”. With `Cc1nnc(SCC(=O)N2CC(=O)Nc3ccccc32)n1-c1ccccc1`, the outcome was inactive. Take `CCN(CC)C(=O)C1CCCN(C/C(C)=C/c2ccccc2)C1` (stereo not given): the outcome was inactive. To `CNC(=O)C1CC(=O)N(Cc2ccc3c(c2)OCO3)C(=Nc2ccc(OC)cc2)S1` (stereo not given) belongs “inactive”.

For the compound `CCN(CC)C(=O)NC1CC2CCCC(C1)N2Cc1ccccc1` (stereo not given), the result was inactive. `COC(=O)c1ccccc1S(=O)(=O)N(Cc1cc2ccc(OC)cc2[nH]c1=O)CC1CCCO1` (stereo not given): the outcome was inactive. `CCCN(C(=O)c1ccccc1N)c1c(C)n(C)n(-c2ccccc2)c1=O`: the outcome was inactive. As for `CCN1C(=O)/C(=C2/Sc3ccc(OC)cc3N2C)SC1=Nc1ccc(C(C)=O)cc1`, the outcome was inactive. For `CCOC(=O)c1ccc(NC(=O)CSc2nc(C)cc(=O)[nH]2)cc1`, the outcome was inactive.

`CC(=O)c1ccc(Oc2ncnc3sccc23)c(CN2CCOCC2)c1`: the outcome was inactive. `COc1ccc(Br)cc1CNC(=O)C1CCN(S(=O)(=O)N2CCCC2)CC1`: the result was inactive. Take `CS(=O)(=O)N1CCN(C(=O)CCC2CCCC2)CC1`: the result was inactive. Consider `COc1cccc(CNC(=O)C2CCCN(c3nn4c(=O)cc(C)nc4s3)C2)c1` (stereo not given), for which the outcome was inactive.

In the case of `CC(C)C(C(=O)NCC1CCCO1)N(Cc1ccco1)C(=O)CNS(=O)(=O)c1ccc(F)cc1` (stereo not given), the outcome was inactive. Take `N#Cc1cccc(CSc2nnc(CCCO)n2-c2ccccc2)c1`: the result was inactive.

Consider `COc1ccc(N2CCN(CCNS(=O)(=O)c3cccc4nsnc34)CC2)cc1`, for which the outcome was inactive. `CS(=O)(=O)N1CCCC(C(=O)NCc2cccs2)C1` (stereo not given): the result was inactive. Consider `Cc1cccc(-n2nc3c(c2NC(=O)c2ccco2)CSC3)c1C`, for which the outcome was inactive. On to `COCCNC(=O)C(c1ccc(C)o1)N(Cc1ccc(OC)cc1)C(=O)Cn1nnc2ccccc21` (stereo not given), for which the result was inactive.

Consider `O=C(CNCC1CCCO1)Nc1ccccc1N1CCOCC1` (stereo not given), for which the result was inactive. As for `C=CCn1c(NCc2ccccc2)nc2ccccc21`, the outcome was inactive.

On to `O=C(NCC1CCCO1)C1CC(=O)N(C2CCCCCC2)C1` (stereo not given), for which the result was inactive. As for `C=CCNC(=O)C1CCCN(S(C)(=O)=O)C1` (stereo not given), the result was inactive. The result for `COC(=O)[C@@H](NC(=O)N1CCN(c2cccc(C(F)(F)F)c2)CC1)C(C)C` reads “inactive”; that for `CN1CC(=O)NC1=NC(=O)c1ccc(Cl)c(S(=O)(=O)N2CCCCCC2)c1`, “inactive”. As to `COc1ccc(OC)c(NC(=O)CNC(=O)Cn2ccc3ccccc3c2=O)c1`, the result was inactive.

On to `COc1ccc2[nH]cc(C(=O)CN3CCCC(C)C3)c2c1` (stereo not given), for which the result was inactive. For `O=C(c1ccc2ccccc2c1)N1CCN(c2ccc(O)cc2)CC1`, the outcome was inactive. For the compound `O=C(CCN1C(=O)c2ccccc2C1=O)NC1=NCCS1`, the outcome was inactive.

Turning to `O=C(CN(C(=O)CNS(=O)(=O)c1ccccc1)C1CCCC1)NCc1ccco1`, the outcome was inactive. Regarding `O=C(Cc1cn2ccsc2n1)OCc1nc2ccccc2s1`, the outcome was inactive. For `CCC1CCCCN1CCCNC(=O)Cn1nc(-c2ccccc2)ccc1=O` (stereo not given), the outcome was inactive.
